Measured values from patent US20260184708A1, “PYRIDAZINONES AND METHODS OF USE THEREOF” (GFB (ABC), LLC, priority 2017, published 2026).
Read-outs that look alike come from different tables or passages of the source.

Target: T1, TRPC5 (Homo sapiens, UniProt Q9UL62)
T1 construct: expressed in transfected cells; host or cells: HEK 293
T1 sequence (Q9UL62 1-973): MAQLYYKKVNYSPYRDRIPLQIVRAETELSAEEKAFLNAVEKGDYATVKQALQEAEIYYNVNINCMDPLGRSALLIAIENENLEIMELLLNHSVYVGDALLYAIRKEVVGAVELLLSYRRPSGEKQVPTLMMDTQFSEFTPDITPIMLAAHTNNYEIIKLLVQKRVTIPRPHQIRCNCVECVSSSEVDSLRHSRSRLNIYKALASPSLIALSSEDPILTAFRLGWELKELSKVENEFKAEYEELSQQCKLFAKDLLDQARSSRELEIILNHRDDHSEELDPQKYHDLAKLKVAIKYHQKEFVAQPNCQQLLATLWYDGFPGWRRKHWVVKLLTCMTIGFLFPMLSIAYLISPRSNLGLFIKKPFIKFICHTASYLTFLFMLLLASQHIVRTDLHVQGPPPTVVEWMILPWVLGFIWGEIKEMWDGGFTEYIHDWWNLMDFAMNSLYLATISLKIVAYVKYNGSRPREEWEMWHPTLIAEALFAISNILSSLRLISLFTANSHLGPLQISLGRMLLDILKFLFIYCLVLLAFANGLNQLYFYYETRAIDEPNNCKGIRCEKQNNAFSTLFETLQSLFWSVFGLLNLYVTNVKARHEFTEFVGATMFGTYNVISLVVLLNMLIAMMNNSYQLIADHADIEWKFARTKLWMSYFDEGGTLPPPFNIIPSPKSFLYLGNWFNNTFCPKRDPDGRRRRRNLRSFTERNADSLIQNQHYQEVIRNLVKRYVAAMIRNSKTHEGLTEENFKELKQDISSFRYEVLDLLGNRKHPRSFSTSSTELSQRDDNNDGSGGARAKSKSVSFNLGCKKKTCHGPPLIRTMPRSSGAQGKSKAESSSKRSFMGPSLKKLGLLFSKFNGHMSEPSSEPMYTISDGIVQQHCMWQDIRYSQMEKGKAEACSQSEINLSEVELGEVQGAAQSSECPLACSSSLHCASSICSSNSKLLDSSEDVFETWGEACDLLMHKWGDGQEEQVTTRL
Assay: TRPC5 automated patch clamp assay (Qpatch), current block after rosiglitazone stimulation
Format: cell-based
Method: HEK 293 cells expressing human TRPC5 were harvested, re-suspended in serum free medium, and added to the automated platform and used within 2-3 hours. Internal and external physiological solutions were freshly prepared prior to the assay. The external solution contained: 145 mM NaCl, 4 mM KCl, 2 mM CaCl2), 1 mM MgCl2, 10 mM HEPES, 10 mM glucose, pH 7.4 with NaOH and 300 mOsm/L. The internal solution contained 120 mM L-aspartic acid, 120 mM CsOH·H2O, 20 mM CsCl, 2 mM MgCl2, 8.8 mM CaCl2), 10 mM EGTA, 10 mM HEPES, 10 mM Glucose, 0.1 mM GTP and 2 mM Na2ATP; pH 7.2 with CsOH and 290 mOsm/L. The free internal Ca2+ concentration was buffered to 1 μM.
The automated electrophysiological platform QPatch 16 from Sophion (Denmark) was used to carry out the compounds profiling. The series resistance and quality of seals were continuously monitored during the experiments. Data was analyzed using Sophion QPatch assay software 5.6 (Odense). IC50 values were calculated using a least squares regression algorithm (Hill equation).
To monitor the ion currents, a voltage ramp from −100 mV to +100 mV, over 300 ms, was applied every 10 seconds, from a holding potential of −60 mV.
After recording for a minimum of 60 seconds control period, Rosiglitazone (30 uM), was applied to activate the channel.

[1] = Table 3, HEK293 cells overexpressing TRPC5, rosiglitazone stimulation, 80 mV, read-out: TRPC5_QP_ XC50_80
[2] = Table 3, HEK293 cells overexpressing TRPC5, rosiglitazone stimulation, 100 mV, read-out: TRPC5_QP_ XC50_100

SMILES | IC50 [1] [µM] | IC50 [2] [µM] | IC50 (Table 4, HEK293 cells overexpressing TRPC5, rosiglitazone stimulation, 80 mV, read-out: TRPC5_QP_ XC50_80) [µM] | IC50 (Table 4, HEK293 cells overexpressing TRPC5, rosiglitazone stimulation, 100 mV, read-out: TRPC5_QP_ XC50_100) [µM] | IC50 [µM]
O=c1[nH]ncc(N2CCN(CC(F)(F)F)CC2)c1Br | 10 to 500 | 10 to 500 | – | – | –
O=c1[nH]ncc(N2CCN(Cc3cccc(C(F)(F)F)c3)CC2)c1Cl | 1 to 5 | 1 to 5 | – | – | –
O=c1[nH]ncc(N2CCN(Cc3ccccc3OC(F)(F)F)CC2)c1Br | 1 to 5 | 1 to 5 | – | – | –
Cc1ccccc1CN1CCN(c2cn[nH]c(=O)c2Cl)CC1 | 1 to 5 | 1 to 5 | – | – | –
O=c1[nH]ncc(N2CCN(Cc3ccccc3OC(F)(F)F)CC2)c1Cl | 1 to 5 | 1 to 5 | – | – | –
Cc1ccccc1CN1CCN(c2cn[nH]c(=O)c2-c2ccccc2)CC1 | 5 to 10 | 5 to 10 | – | – | –
Cc1ccccc1CN1CCC2(C1)CN(c1cn[nH]c(=O)c1Br)C2 | 10 to 500 | 10 to 500 | – | – | –
Cc1ccccc1CN1CC2(CCN(c3cn[nH]c(=O)c3Br)C2)C1 | 10 to 500 | 10 to 500 | – | – | –
Cc1ccccc1CN1CCN(c2cn[nH]c(=O)c2C#CC(C)C)CC1=O | 10 to 500 | 10 to 500 | – | – | –
Cc1ccccc1CN1CCN(c2cn[nH]c(=O)c2C#CC2CC2)CC1=O | 10 to 500 | 10 to 500 | – | – | –
O=C1CN(c2cn[nH]c(=O)c2Br)CCN1CC1CCCCC1 | 1 to 5 | 1 to 5 | – | – | –
Cc1ccccc1CN1CCN(c2cn[nH]c(=O)c2OC2CCCC2)CC1=O | 5 to 10 | 5 to 10 | – | – | –
Cc1cc(F)ccc1CN1CCN(c2cn[nH]c(=O)c2Br)CC1=O | 1e-05 to 1 | 1 to 5 | – | – | –
COc1c(N2CCN(Cc3ccccc3C)C(=O)C2)cn[nH]c1=O | 10 to 500 | 10 to 500 | – | – | –
O=C1CN(c2cn[nH]c(=O)c2Br)CCN1Cc1ccc(F)cc1F | 1 to 5 | 1 to 5 | – | – | –
Cc1ccccc1CN1CCN(c2cn[nH]c(=O)c2-c2ccccc2)CC1=O | 10 to 500 | 10 to 500 | – | – | –
Cc1ccccc1CN1CCN(c2cn[nH]c(=O)c2C)CC1=O | 5 to 10 | 5 to 10 | – | – | –

SMILES | IC50 [1] [µM] | IC50 [2] [µM] | IC50 (Table 4, HEK293 cells overexpressing TRPC5, rosiglitazone stimulation, 80 mV, read-out: TRPC5_QP_ XC50_80) [µM] | IC50 (Table 4, HEK293 cells overexpressing TRPC5, rosiglitazone stimulation, 100 mV, read-out: TRPC5_QP_ XC50_100) [µM] | IC50 [µM]
Cc1ccccc1CN1CCN(c2cn[nH]c(=O)c2-c2ccccn2)CC1=O | 10 to 500 | 10 to 500 | – | – | –
CCS(=O)(=O)c1c(N2CCN(Cc3ccccc3C)C(=O)C2)cn[nH]c1=O | 10 to 500 | 10 to 500 | – | – | –
O=c1[nH]ncc(N2CCN(Cc3ccc(Cl)cc3F)CC2)c1Cl | 5 to 10 | 10 to 500 | – | – | –
O=C1CN(c2cn[nH]c(=O)c2Cl)CCN1Cc1ccc(Cl)cc1F | 5 to 10 | 5 to 10 | – | – | –
Cc1ccccc1CN1CCN(c2cn[nH]c(=O)c2C2=CCOCC2)CC1=O | 10 to 500 | 10 to 500 | – | – | –
O=C1CN(c2cn[nH]c(=O)c2Cl)CCN1Cc1ccccc1C(F)(F)F | 1e-05 to 1 | 1e-05 to 1 | – | – | –
Cc1ccccc1CN1CCN(c2cn[nH]c(=O)c2N2CCOCC2)CC1=O | 10 to 500 | 10 to 500 | – | – | –
O=c1[nH]ncc(N2CCN(Cc3ccc(F)cc3Cl)CC2)c1Cl | 1 to 5 | 5 to 10 | – | – | –
Cc1cc(F)ccc1CN1CCN(c2c(Cl)cn[nH]c2=O)CC1 | 1 to 5 | 1 to 5 | – | – | –
Cc1ccccc1CN1CCN(c2cn[nH]c(=O)c2C(F)(F)F)CC1=O | 1 to 5 | 5 to 10 | – | – | –
O=c1[nH]ncc(N2CCN(Cc3ccc(F)cc3F)CC2)c1Cl | 5 to 10 | 5 to 10 | – | – | –
O=c1[nH]ncc(N2CCN(Cc3ccc(C(F)(F)F)cc3)CC2)c1Cl | 10 to 500 | 10 to 500 | – | – | –
O=c1[nH]ncc(N2CCN(Cc3c(F)cccc3F)CC2)c1Cl | 1 to 5 | 1 to 5 | – | – | –
O=C1CN(c2cn[nH]c(=O)c2Cl)CCN1Cc1c(F)cccc1F | 1 to 5 | 1 to 5 | – | – | –
Cc1ccccc1CN1CCN(c2cn[nH]c(=O)c2C2CC2)CC1=O | – | – | 1 to 5 | 1 to 5 | –
O=c1[nH]ncc(N2CCc3c(ncn3Cc3cccc(C(F)(F)F)c3)C2)c1Cl | – | – | – | – | 1 to 5
